In patent publication US20250296948A1, “SYNTHESIS OF NUCLEOSIDE DERIVATIVES” (Nucana plc, priority 2022, published 2025):

Columns and labels:
Type in all cases: physicochemical
[1] = 6 month dry powder stability, HPLC assay
Source text: (§1) NUC-3373 prepared according to Example 3 and Comparative Example 4 was packed into a transparent LDPE bag which was then filled with nitrogen and tied with a strip seal. This bag was then placed into another transparent LDPE bag which was also filled with nitrogen. A silica gel packet was placed between the two bags before the outermost bag was tied with a strip seal. These bags were then placed in a triple laminated sun light barrier bag which was sealed with a heat sealer. The bags were kept in a HDPE container.
(§2) NUC-3373 was initially assayed by HPLC after manufacture (0 months) then after 1 and 2 and/or 3 and 6 months of storage at 2-8° C., 25° C. or 40° C.

[2] = 6 month dry powder stability, Alpha Naphthol content by HPLC
Source text: as §1, §2
The Alpha Naphthol content of the same batches was also determined by HPLC. The levels of the alpha naphthol impurity is a key indicator of stability of the tested material.

[3] = Solution stability, alpha naphthol (0.60 RRT) in DMA:Saline (80:20 v/v); design: 0.60 RRT (Alpha Naphthol): unit not given here; conditions: 400 mg/mL in DMA:Saline (80:20 v/v)
Protocol: Stability data is also provided in Table 4, which compares the levels of alpha naphthol (0.60 RRT) present in solutions of 400 mg/mL NUC-3373, prepared by Example 3 or 4, above, in DMA:Saline (80:20 v/v) at different temperatures measured over set periods of time. The tested solutions are suitable for infusion and injection and the temperatures and times measured are representative of the environments that solutions suitable for infusion and injection would typically be stored in.
In Table 4 the two values provided for each temperature at each time period, separated by “/”, represent different preparations (samples) of that synthesis.

Compound: C[C@H](NP(=O)(OC[C@H]1O[C@@H](n2cc(F)c(=O)[nH]c2=O)CC1O)Oc1cccc2ccccc12)C(=O)OCc1ccccc1 (stereo partly drawn) [Comparative Example 4, 5-fluoro-2′-deoxyuridine-5′-O-[1-naphthyl (benzoxy-L-alaninyl)] phosphate]
- Decrease after 6 months, HPLC assay ([1]; 2-8 ° C.): None
- HPLC assay (% w/w on anhydrous and solvent free basis) ([1]; 2-8 ° C., 0 months): 100 % w/w
- HPLC assay (% w/w on anhydrous and solvent free basis) ([1]; 2-8 ° C., 3 months): 100 % w/w
- HPLC assay (% w/w on anhydrous and solvent free basis) ([1]; 2-8 ° C., 6 months): 100 % w/w
- Decrease after 6 months, HPLC assay ([1]; 25 ° C.): 0.1 % w/w
- HPLC assay (% w/w on anhydrous and solvent free basis) ([1]; 25 ° C., 0 months): 99.7 % w/w
- HPLC assay (% w/w on anhydrous and solvent free basis) ([1]; 25 ° C., 3 months): 99.5 % w/w
- HPLC assay (% w/w on anhydrous and solvent free basis) ([1]; 25 ° C., 6 months): 99.6 % w/w
- Decrease after 6 months, HPLC assay ([1]; 40 ° C.): 2.0 % w/w
- HPLC assay (% w/w on anhydrous and solvent free basis) ([1]; 40 ° C., 0 months): 99.7 % w/w
- HPLC assay (% w/w on anhydrous and solvent free basis) ([1]; 40 ° C., 1 month): 99.3 % w/w
- HPLC assay (% w/w on anhydrous and solvent free basis) ([1]; 40 ° C., 2 months): 99.0 % w/w
- HPLC assay (% w/w on anhydrous and solvent free basis) ([1]; 40 ° C., 3 months): 99.3 % w/w
- HPLC assay (% w/w on anhydrous and solvent free basis) ([1]; 40 ° C., 6 months): 97.7 % w/w
- Increase after 6 months, Alpha Naphthol by HPLC ([2]; 2-8 ° C.): None
- Alpha Naphthol by HPLC (% w/w) ([2]; 2-8 ° C., 0 months): 0.09 % w/w
- Alpha Naphthol by HPLC (% w/w) ([2]; 2-8 ° C., 3 months): 0.10 % w/w
- Alpha Naphthol by HPLC (% w/w) ([2]; 2-8 ° C., 6 months): 0.09 % w/w
- Increase after 6 months, Alpha Naphthol by HPLC ([2]; 25 ° C.): 0.1 % w/w
- Alpha Naphthol by HPLC (% w/w) ([2]; 25 ° C., 0 months): 0.09 % w/w
- Alpha Naphthol by HPLC (% w/w) ([2]; 25 ° C., 3 months): 0.10 % w/w
- Alpha Naphthol by HPLC (% w/w) ([2]; 25 ° C., 6 months): 0.10 % w/w
- Increase after 6 months, Alpha Naphthol by HPLC ([2]; 40 ° C.): 1.11 % w/w
- Alpha Naphthol by HPLC (% w/w) ([2]; 40 ° C., 0 months): 0.09 % w/w
- Alpha Naphthol by HPLC (% w/w) ([2]; 40 ° C., 1 month): 0.18 % w/w
- Alpha Naphthol by HPLC (% w/w) ([2]; 40 ° C., 2 months): 0.27 % w/w
- Alpha Naphthol by HPLC (% w/w) ([2]; 40 ° C., 3 months): 0.18 % w/w
- Alpha Naphthol by HPLC (% w/w) ([2]; 40 ° C., 6 months): 1.2 % w/w
- 0.60 RRT (Alpha Naphthol) ([3]; After 1 month at 2-8° C., first preparation (before "/")): 0.04/0.04
- 0.60 RRT (Alpha Naphthol) ([3]; After 1 month at 2-8° C., second preparation (after "/")): 0.04/0.04
- 0.60 RRT (Alpha Naphthol) ([3]; After 1 month at 25 ± 5° C., first preparation (before "/")): 0.29/0.29
- 0.60 RRT (Alpha Naphthol) ([3]; After 1 month at 25 ± 5° C., second preparation (after "/")): 0.29/0.29
- 0.60 RRT (Alpha Naphthol) ([3]; After 3 months at 2-8° C., first preparation (before "/")): 0.06/0.06
- 0.60 RRT (Alpha Naphthol) ([3]; After 3 months at 2-8° C., second preparation (after "/")): 0.06/0.06
- 0.60 RRT (Alpha Naphthol) ([3]; After 3 months at 25 ± 5° C., first preparation (before "/")): 0.45
- 0.60 RRT (Alpha Naphthol) ([3]; After 3 months at 25 ± 5° C., second preparation (after "/")): 0.46
- 0.60 RRT (Alpha Naphthol) ([3]; After 15 days at 2-8° C., first preparation (before "/")): 0.04/0.04
- 0.60 RRT (Alpha Naphthol) ([3]; After 15 days at 2-8° C., second preparation (after "/")): 0.04/0.04
- 0.60 RRT (Alpha Naphthol) ([3]; After 15 days at 25 ± 5° C., first preparation (before "/")): 0.19
- 0.60 RRT (Alpha Naphthol) ([3]; After 15 days at 25 ± 5° C., second preparation (after "/")): 0.20
- 0.60 RRT (Alpha Naphthol) ([3]; Initial): 0.02
